“And” between values parts separate entries of the source, which are not always exact repeats. Equal entries are not always repeated. Where two headings read alike, the source gives them in different places.
Tests used:
[1] = tested on: KAP-shMapk14 and KAP-shNC organoids; test: cell viability in KAP-shMapk14 and KAP-shNC organoids treated with doxycycline and 2015; format: cell-based, mouse; design: Cell viability (%): concentration or dose not given beside the values; details: for Cell viability (%): individual replicates, relative to shNC + DMSO
Experimental: To produce retroviral particles, Phoenix packaging cells were transfected with retroviral DNA (pRT3GEPIR and pR-BRAF^V600E-Puro) through calcium phosphate transfection. The viral supernatant, supplemented with polybrene (5 µg ml^−1) was applied on cells or dissociated organoids and the infected cultures were selected with puromycin (3 µg ml^−1). Expression of shRNAs and GFP was induced with 5 µg ml^−1 doxycycline (Sigma).
For in vitro treatment studies, organoids were mechanically dissociated and digested using TrypLE supplemented with 100 µg ml^−1 DNaseI and 10.5 µM Y-27632 dihydrochloride (Invitrogen) at 37 °C. A total of 1,000–2,000 single cells were plated per well in white 96-well plates (Greiner) in culture medium containing 10% GFR Matrigel or Cultrex BME. The treatment with doxycycline (5 µg ml^−1), pharmacological inhibitors or corresponding volumes of DMSO was started 24 h after plating. Doxycycline was obtained from Sigma-Aldrich. […] Cell viability was measured by means of CellTiter-Glo 3D or CellTiter-Glo 2.0 reagent (Promega) according to the manufacturers’ instructions and the Infinite M Plex reader (Tecan, i-control version 3.9.1 software). Results were normalized to vehicle (DMSO) or to shNC. For cell-doubling assays, the cell number was quantified at the corresponding time points using Guava EasyCyte flow cytometer (Luminex, CytoSoft v5.2 software).

[2] = weight development of treated mice; format: in vivo, mouse
Experimental: No mice were excluded during treatment studies. […] GFP imaging of tumors was performed using a Hamamatsu imaging system. For quantification of compounds in the murine plasma, 20 μl of tail-vein blood was diluted with 80 μl of heparin solution, before 200 μl of ice-cold acetonitrile with a defined internal standard was added. The samples were sonicated and centrifuged and the supernatant was subjected to liquid chromatography-mass spectrometry quantification. Full blood analyses were performed with the Sysmex KX-21N hematology analyzer.

[3] = tested on: KMP liver metastasis; test: survival of mice with KMP liver metastasis; format: in vivo, mouse
Experimental: (§2) Subcutaneous injection, splenic seeding or cecum injection of organoids was performed in 8–10-week-old C57BL/6 N/Crl, Rag2^−/− (B6.Cg-Rag2^tm1.1Cgn/J), or CB17 Scid beige (CB17.Cg-Prkdc^scidLyst^bg-J/Crl) mice, obtained from Charles River. The organoids were dissociated into single cells, washed with PBS and injected in a 1:1 mixture of PBS and Matrigel. For murine organoids, 1 × 10^5 cells were injected into the left and right flanks or the spleen capsule and 2 × 10^6 cells were injected into the cecum wall. For human organoids, 4 × 10^5 cells were injected into the flanks of CB17 Scid beige mice. For splenic seeding and cecum injection, mice were anaesthetized using ketamine (100 mg kg^−1, intraperitoneally) and xylazin (10 mg/kg, intraperitoneally) in NaCl and a small laparotomy below the thorax was performed.

[4] = tested on: subcutaneous human PDO6 CRCs; test: treatment of subcutaneous human PDO6 CRCs in CB17 Scid beige mice; format: in vivo, mouse
Experimental: Subcutaneous injection, splenic seeding or cecum injection of organoids was performed in 8–10-week-old C57BL/6 N/Crl, Rag2^−/− (B6.Cg-Rag2^tm1.1Cgn/J), or CB17 Scid beige (CB17.Cg-Prkdc^scidLyst^bg-J/Crl) mice, obtained from Charles River. The organoids were dissociated into single cells, washed with PBS and injected in a 1:1 mixture of PBS and Matrigel. For murine organoids, 1 × 10^5 cells were injected into the left and right flanks or the spleen capsule and 2 × 10^6 cells were injected into the cecum wall. For human organoids, 4 × 10^5 cells were injected into the flanks of CB17 Scid beige mice. For splenic seeding and cecum injection, mice were anaesthetized using ketamine (100 mg kg^−1, intraperitoneally) and xylazin (10 mg/kg, intraperitoneally) in NaCl and a small laparotomy below the thorax was performed. Upon injection, the puncture region was washed with prewarmed H2O. Within the first week after operation, the mice were treated with the analgesics carprofen and metamizol. The maximum size of individual tumor nodules permitted by the regional authority of the state of Baden-Wuerttemberg (Regierungspraesidium Tübingen: subcutaneous tumor nodules, 1 cm; other tumor nodules, 0.5 cm) was not exceeded.

[5] = histological evaluation of small intestine, colon and liver of treated mice; format: in vivo, mouse
Experimental: Histopathological evaluation of colorectal tumors and healthy tissues was performed by experienced pathologists (S.S. for murine or human tumors and tissues; G.O. for human tumors). Hematoxylin and eosin (H&E) staining was performed on paraffin-embedded sections using 0.5% eosin and 0.5% hematoxylin.

[6] = cell viability after 2015, Navitoclax or 2015 + Navitoclax (Fig. 5f); format: cell-based; design: concentration or dose not given beside the values; details: replicates
[7] = tested on: KMP primary CRCs; test: survival of mice with KMP primary CRCs (cecum injection); format: in vivo, mouse
Experimental: as §2

[8] = biological target: T1, 340 wild-type kinases (Homo sapiens, UniProt Q8TDX7); test: selectivity profiling in a panel of 340 wild-type kinases (Reaction Biology Europe); format: binding; details: NEK7; 1 µM; read-out: residual activity
T1 construct: purchased Reaction Biology Europe
Excerpt: (§1) Potential interactions between 2015 and 340 wild-type kinases were checked by means of a competition binding assay performed by Reaction Biology Europe (Supplementary Table 15).

[9] = biological target: T2, 340 wild-type kinases (Homo sapiens, UniProt O43318); test: as above; format: binding; details: MAP3K7/MAP3K7IP1; 0.2 µM; read-out: residual activity
T2 construct: purchased Reaction Biology Europe
T2 sequence (O43318 1-606): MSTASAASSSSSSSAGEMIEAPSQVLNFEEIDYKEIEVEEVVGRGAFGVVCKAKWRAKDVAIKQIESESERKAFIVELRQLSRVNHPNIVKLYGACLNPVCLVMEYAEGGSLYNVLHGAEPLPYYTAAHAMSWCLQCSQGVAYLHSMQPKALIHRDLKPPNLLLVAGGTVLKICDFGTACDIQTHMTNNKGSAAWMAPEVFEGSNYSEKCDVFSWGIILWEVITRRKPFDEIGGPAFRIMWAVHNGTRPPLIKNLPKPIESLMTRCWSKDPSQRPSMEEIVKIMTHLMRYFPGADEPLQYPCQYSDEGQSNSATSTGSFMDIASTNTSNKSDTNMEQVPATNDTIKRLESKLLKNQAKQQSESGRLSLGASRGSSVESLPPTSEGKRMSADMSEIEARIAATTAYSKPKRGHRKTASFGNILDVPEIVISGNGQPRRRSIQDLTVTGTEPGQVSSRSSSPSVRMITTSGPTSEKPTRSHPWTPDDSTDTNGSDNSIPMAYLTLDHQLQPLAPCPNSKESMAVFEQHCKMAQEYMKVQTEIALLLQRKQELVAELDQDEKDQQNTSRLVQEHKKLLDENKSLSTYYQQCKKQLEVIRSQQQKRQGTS
Excerpt: as §1

[10] = biological target: T3, 340 wild-type kinases (Homo sapiens, UniProt Q00537); test: as above; format: binding; details: CDK17/p35NCK; 0.2 µM; read-out: residual activity
T3 construct: purchased Reaction Biology Europe
Excerpt: as §1

[11] = biological target: T4, 340 wild-type kinases (Homo sapiens, UniProt Q14680); test: as above; format: binding
T4 construct: purchased Reaction Biology Europe

[12] = biological target: T5, 340 wild-type kinases (Homo sapiens, UniProt P04049, Y340D/Y341D); test: as above; format: binding; details: read-out: RAF1 YDYD residual activity
T5 construct: purchased Reaction Biology Europe

[13] = biological target: T6, 340 wild-type kinases (Homo sapiens, UniProt Q8N4C8); test: as above; format: binding
T6 construct: purchased Reaction Biology Europe
T6 sequence (Q8N4C8 whole entry): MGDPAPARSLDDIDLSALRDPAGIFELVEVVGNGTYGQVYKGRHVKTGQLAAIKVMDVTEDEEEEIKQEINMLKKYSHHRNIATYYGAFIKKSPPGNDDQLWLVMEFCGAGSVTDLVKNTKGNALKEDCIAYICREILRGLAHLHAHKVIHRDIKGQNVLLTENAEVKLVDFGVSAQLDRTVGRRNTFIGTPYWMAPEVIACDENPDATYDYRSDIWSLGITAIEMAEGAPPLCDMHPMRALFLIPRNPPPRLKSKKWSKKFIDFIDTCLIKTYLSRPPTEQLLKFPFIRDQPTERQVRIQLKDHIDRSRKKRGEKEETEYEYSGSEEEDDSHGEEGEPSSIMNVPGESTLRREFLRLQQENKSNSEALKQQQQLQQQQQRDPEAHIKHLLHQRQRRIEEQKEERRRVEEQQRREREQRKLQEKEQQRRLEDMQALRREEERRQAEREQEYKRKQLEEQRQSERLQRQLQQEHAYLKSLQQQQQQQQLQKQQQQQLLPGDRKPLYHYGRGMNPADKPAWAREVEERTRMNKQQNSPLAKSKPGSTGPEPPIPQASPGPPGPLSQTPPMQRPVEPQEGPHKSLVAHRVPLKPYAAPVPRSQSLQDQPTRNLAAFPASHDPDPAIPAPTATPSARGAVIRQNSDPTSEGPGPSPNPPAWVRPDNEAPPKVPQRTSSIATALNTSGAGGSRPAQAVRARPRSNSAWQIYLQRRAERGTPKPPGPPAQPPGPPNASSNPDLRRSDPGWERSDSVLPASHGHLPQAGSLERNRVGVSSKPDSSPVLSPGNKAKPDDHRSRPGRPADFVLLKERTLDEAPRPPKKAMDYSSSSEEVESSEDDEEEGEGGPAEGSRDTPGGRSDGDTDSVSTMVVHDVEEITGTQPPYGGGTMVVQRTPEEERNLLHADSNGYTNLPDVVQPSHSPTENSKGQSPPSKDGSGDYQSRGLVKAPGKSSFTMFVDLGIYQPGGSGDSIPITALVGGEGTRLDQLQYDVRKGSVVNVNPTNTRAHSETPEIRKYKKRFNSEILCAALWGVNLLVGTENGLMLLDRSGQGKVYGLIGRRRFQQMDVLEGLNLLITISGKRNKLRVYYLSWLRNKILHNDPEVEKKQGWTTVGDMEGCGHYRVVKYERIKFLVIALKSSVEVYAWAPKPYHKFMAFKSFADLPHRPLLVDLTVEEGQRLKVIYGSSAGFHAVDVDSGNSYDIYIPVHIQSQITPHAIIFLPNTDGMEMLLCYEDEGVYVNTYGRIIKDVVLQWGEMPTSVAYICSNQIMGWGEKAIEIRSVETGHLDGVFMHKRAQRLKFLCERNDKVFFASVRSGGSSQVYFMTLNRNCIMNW

T4 sequence (Q14680 whole entry): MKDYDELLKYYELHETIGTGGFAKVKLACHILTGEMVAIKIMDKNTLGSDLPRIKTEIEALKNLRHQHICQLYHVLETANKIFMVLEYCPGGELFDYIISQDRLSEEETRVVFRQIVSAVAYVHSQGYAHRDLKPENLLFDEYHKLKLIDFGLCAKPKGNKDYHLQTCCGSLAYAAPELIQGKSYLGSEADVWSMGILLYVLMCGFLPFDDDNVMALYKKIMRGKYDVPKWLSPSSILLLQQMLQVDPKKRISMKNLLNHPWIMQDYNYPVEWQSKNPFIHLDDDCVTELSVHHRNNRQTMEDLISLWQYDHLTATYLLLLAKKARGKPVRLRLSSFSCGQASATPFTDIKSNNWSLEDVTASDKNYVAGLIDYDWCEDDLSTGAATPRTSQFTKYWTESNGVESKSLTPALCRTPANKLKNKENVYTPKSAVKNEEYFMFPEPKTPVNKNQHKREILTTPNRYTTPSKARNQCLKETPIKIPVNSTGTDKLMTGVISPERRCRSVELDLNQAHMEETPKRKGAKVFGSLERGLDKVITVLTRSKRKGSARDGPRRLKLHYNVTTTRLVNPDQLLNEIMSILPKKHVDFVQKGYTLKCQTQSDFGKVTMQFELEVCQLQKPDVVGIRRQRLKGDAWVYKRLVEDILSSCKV
T5 sequence (P04049 whole entry Y340D/Y341D): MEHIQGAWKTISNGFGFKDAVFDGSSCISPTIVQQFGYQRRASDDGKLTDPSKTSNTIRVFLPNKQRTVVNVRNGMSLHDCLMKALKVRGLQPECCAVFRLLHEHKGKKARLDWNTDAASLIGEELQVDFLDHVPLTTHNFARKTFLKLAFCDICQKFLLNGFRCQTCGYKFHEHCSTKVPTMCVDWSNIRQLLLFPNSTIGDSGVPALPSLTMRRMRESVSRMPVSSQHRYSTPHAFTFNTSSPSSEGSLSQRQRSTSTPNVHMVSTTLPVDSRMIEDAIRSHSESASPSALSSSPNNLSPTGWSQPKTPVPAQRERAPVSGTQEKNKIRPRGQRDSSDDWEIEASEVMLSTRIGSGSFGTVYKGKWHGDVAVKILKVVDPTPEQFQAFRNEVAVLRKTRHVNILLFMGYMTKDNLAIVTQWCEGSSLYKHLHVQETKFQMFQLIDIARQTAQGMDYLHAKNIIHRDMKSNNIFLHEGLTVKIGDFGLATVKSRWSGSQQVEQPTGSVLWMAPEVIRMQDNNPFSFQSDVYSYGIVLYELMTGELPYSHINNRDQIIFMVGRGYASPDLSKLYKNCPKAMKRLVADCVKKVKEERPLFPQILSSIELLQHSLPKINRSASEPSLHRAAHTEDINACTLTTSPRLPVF
T3 sequence (Q00537 whole entry): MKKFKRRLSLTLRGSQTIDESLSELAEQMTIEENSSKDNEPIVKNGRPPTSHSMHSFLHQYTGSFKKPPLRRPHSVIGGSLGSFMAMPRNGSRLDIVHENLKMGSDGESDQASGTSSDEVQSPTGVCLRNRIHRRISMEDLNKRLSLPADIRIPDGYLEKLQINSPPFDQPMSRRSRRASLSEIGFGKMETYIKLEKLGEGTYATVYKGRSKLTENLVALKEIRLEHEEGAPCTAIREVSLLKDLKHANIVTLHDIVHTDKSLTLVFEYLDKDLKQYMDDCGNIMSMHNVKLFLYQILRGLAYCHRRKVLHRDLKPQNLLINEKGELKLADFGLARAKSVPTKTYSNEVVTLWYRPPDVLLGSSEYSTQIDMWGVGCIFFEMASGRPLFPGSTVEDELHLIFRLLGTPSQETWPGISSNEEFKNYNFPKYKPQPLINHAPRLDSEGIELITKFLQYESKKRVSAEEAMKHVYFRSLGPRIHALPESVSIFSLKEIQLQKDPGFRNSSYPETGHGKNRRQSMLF
T1 sequence (Q8TDX7 whole entry): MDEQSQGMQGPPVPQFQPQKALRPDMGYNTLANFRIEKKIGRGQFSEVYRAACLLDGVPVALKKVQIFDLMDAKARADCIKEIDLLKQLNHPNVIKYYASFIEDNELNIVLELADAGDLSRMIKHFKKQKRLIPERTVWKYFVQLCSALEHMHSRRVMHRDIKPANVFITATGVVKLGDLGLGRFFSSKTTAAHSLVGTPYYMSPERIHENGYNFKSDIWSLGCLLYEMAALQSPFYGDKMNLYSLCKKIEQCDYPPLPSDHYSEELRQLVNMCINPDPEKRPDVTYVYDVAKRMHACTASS

CNC(=O)c1ccc2c(c1)C(=O)c1ccc(Nc3ccc(F)c(NC(=O)C4CC4)c3)cc1CC2 [Compound 2015]
response of KAP-shMapk14.2605 organoids (in words) ([1]; doxycycline-induced Mapk14-shRNA expression): did not respond | Cell viability (%) ([1]; shMapk14.2605 + 2015): 22.20% and 48.13% and 45.94% | Cell viability (%) ([1]; shNC + 2015): 31.98% and 25.43% and 20.36% | Weight development (%) ([2]; day 12): 100.0% and 97.9% and 100.9% and 99.3% and 97.1% | Weight development (%) ([2]; day 14): 100.9% and 97.9% and 97.4% and 99.6% and 101.1% and 98.2% and 100.0% | Weight development (%) ([2]; day 16): 102.6% and 98.7% and 97.0% and 100.9% and 101.1% and 99.3% | Weight development (%) ([2]; day 18): 103.8% and 98.7% and 97.4% and 101.3% and 100.7% and 100.0% and 101.8% | Weight development (%) ([2]; day 20): 102.6% and 98.7% and 97.9% and 101.3% and 100.4% and 100.0% | Weight development (%) ([2]; day 22): 106.4% and 100.4% and 98.7% and 100.0% and 103.3% and 101.1% and 101.4% | Weight development (%) ([2]; day 24): 105.1% and 103.0% and 100.0% and 101.8% and 100.4% and 101.1% | Weight development (%) ([2]; day 26): 106.4% and 100.8% and 101.7% and 102.2% and 101.5% and 100.4% and 101.1% | Weight development (%) ([2]; day 28): 106.8% and 103.4% and 100.9% and 101.3% and 103.7% and 100.7% and 101.1% | Weight development (%) ([2]; day 30): 110.3% and 105.1% and 101.7% and 105.3% and 101.5% and 100.7% and 101.1% | Weight development (%) ([2]; day 32): 106.0% and 105.5% and 102.6% and 102.2% and 102.9% and 101.4% | Weight development (%) ([2]; day 34): 106.8% and 104.7% and 100.9% and 103.5% and 106.2% and 101.1% and 100.4% | Weight development (%) ([2]; day 36): 108.1% and 103.8% and 103.9% and 105.7% and 107.0% and 99.6% and 100.0% | Weight development (%) ([2]; day 38): 109.8% and 107.2% and 103.0% and 106.1% and 109.9% and 100.7% and 101.4% | Weight development (%) ([2]; day 40): 110.3% and 103.4% and 103.0% and 106.6% and 100.7% and 99.3% | Weight development (%) ([2]; day 42): 109.4% and 106.4% | body weight over time (in words) ([2]; mouse, in vivo): did not lose body weight | Survival (d of treatment) ([3]; individual mice, KMP liver metastasis, treatment started 1 week after transplantation): 42 days and 50 days and 29 days and 31 days and 35 days and 44 days | Kaplan–Meier event entry in 2015 (1 or 0) ([3]; individual mice, KMP liver metastasis, meaning of 1/0 not given): 1 and 0 | survival of mice with KMP liver metastasis (in words) ([3]; long-term treatment): significantly prolonged survival | Tumor weight ([4]; individual subcutaneous PDO6 tumors, treated 4 weeks): 25 g and 16 g and 4 g and 32 g | tumor size of PDO6-derived CRCs (in words) ([4]; treated for 4 weeks): strong reduction in tumor size | intestinal epithelium (in words) ([5]; 4 days or 10 weeks daily treatment): did not influence the regeneration of intestinal epithelium | liver damage (in words) ([5]; short-term and long-term treatment): no signs for liver damage | Cell viability [6]: 58.51% and 44.25% and 42.17% | Survival (d of treatment) ([7]; individual mice, KMP primary CRC, treatment started 9 days after transplantation): 24 days and 15 days and 11 days and 25 days and 21 days and 13 days and 18 days | Kaplan–Meier event entry in 2015 (1 or 0) ([7]; individual mice, KMP primary CRC, meaning of 1/0 not given): 1 and 0 | survival of mice with KMP primary CRC (in words) ([7]; start 9 days after organoid injection): significantly prolonged survival | remaining activity at 1 µM [8]: 110% | remaining activity at 0.2 µM [9]: 96.8% | remaining activity at 0.2 µM [10]: 94.8% | remaining activity at 0.2 µM ([11]; 0.2 µM 2015, read-out: MELK residual activity): 94.5% | remaining activity at 1 µM ([11]; 1 µM 2015, read-out: MELK residual activity): 91% | remaining activity at 0.2 µM ([11]; MELK, 0.2 µM, read-out: residual activity): 94.5% | remaining activity at 1 µM ([11]; MELK, 1 µM, read-out: residual activity): 91% | remaining activity at 0.2 µM ([12]; 0.2 µM 2015): 80.3% | remaining activity at 1 µM ([12]; 1 µM 2015): 88.8% | remaining activity at 0.2 µM ([13]; 0.2 µM 2015, read-out: MINK1 residual activity): 88.4% | remaining activity at 1 µM ([13]; 1 µM 2015, read-out: MINK1 residual activity): 84.4% | remaining activity at 0.2 µM ([13]; MINK1, 0.2 µM, read-out: residual activity): 88.4% | remaining activity at 1 µM ([13]; MINK1, 1 µM, read-out: residual activity): 84.4%

Reference: paper PMC11864979, “First-in-class ultralong-target-residence-time p38α inhibitors as a mitosis-targeted therapy for colorectal cancer” (Nature Cancer, 2025)
